Assay results as given in BigSolDB 2.1.

## O=C(N[C@@H](Cc1c[nH]c2ccccc12)C(=O)O)OCc1ccccc1
In 2-butanone, 283.15 K
  solubility (mole fraction): 0.133
In 2-butanone, 288.15 K
  solubility (mole fraction): 0.143
In 2-butanone, 293.15 K
  solubility (mole fraction): 0.152
In 2-butanone, 298.15 K
  solubility (mole fraction): 0.161
In 2-butanone, 303.15 K
  solubility (mole fraction): 0.173
In 2-butanone, 308.15 K
  solubility (mole fraction): 0.182
In 2-butanone, 313.15 K
  solubility (mole fraction): 0.196
In 2-butanone, 318.15 K
  solubility (mole fraction): 0.205
In 2-butanone, 323.15 K
  solubility (mole fraction): 0.221
In acetone, 283.15 K
  solubility (mole fraction): 0.204
In acetone, 288.15 K
  solubility (mole fraction): 0.23
In acetone, 293.15 K
  solubility (mole fraction): 0.264
In acetone, 298.15 K
  solubility (mole fraction): 0.306
In acetone, 303.15 K
  solubility (mole fraction): 0.358
In acetone, 308.15 K
  solubility (mole fraction): 0.409
In acetone, 313.15 K
  solubility (mole fraction): 0.458
In acetone, 318.15 K
  solubility (mole fraction): 0.505
In acetone, 323.15 K
  solubility (mole fraction): 0.557
In acetonitrile, 283.15 K
  solubility (mole fraction): 0.0197
In acetonitrile, 288.15 K
  solubility (mole fraction): 0.025
In acetonitrile, 293.15 K
  solubility (mole fraction): 0.0305
In acetonitrile, 298.15 K
  solubility (mole fraction): 0.0428
In acetonitrile, 303.15 K
  solubility (mole fraction): 0.06
In acetonitrile, 308.15 K
  solubility (mole fraction): 0.0766
In acetonitrile, 313.15 K
  solubility (mole fraction): 0.0967
In acetonitrile, 318.15 K
  solubility (mole fraction): 0.117
In acetonitrile, 323.15 K
  solubility (mole fraction): 0.134
In ethanol, 283.15 K
  solubility (mole fraction): 0.0567
In ethanol, 288.15 K
  solubility (mole fraction): 0.0689
In ethanol, 293.15 K
  solubility (mole fraction): 0.0826
In ethanol, 298.15 K
  solubility (mole fraction): 0.1
In ethanol, 303.15 K
  solubility (mole fraction): 0.124
In ethanol, 308.15 K
  solubility (mole fraction): 0.142
In ethanol, 313.15 K
  solubility (mole fraction): 0.164
In ethanol, 318.15 K
  solubility (mole fraction): 0.189
In ethanol, 323.15 K
  solubility (mole fraction): 0.208
In ethyl acetate, 283.15 K
  solubility (mole fraction): 0.0484
In ethyl acetate, 288.15 K
  solubility (mole fraction): 0.0559
In ethyl acetate, 293.15 K
  solubility (mole fraction): 0.0629
In ethyl acetate, 298.15 K
  solubility (mole fraction): 0.0707
In ethyl acetate, 303.15 K
  solubility (mole fraction): 0.0794
In ethyl acetate, 308.15 K
  solubility (mole fraction): 0.0906
In ethyl acetate, 313.15 K
  solubility (mole fraction): 0.103
In ethyl acetate, 318.15 K
  solubility (mole fraction): 0.118
In ethyl acetate, 323.15 K
  solubility (mole fraction): 0.133
In isobutanol, 283.15 K
  solubility (mole fraction): 0.00972
In isobutanol, 288.15 K
  solubility (mole fraction): 0.0123
In isobutanol, 293.15 K
  solubility (mole fraction): 0.0177
In isobutanol, 298.15 K
  solubility (mole fraction): 0.0245
In isobutanol, 303.15 K
  solubility (mole fraction): 0.0302
In isobutanol, 308.15 K
  solubility (mole fraction): 0.0379
In isobutanol, 313.15 K
  solubility (mole fraction): 0.045
In isobutanol, 318.15 K
  solubility (mole fraction): 0.0547
In isobutanol, 323.15 K
  solubility (mole fraction): 0.0692
In isopropanol, 283.15 K
  solubility (mole fraction): 0.0299
In isopropanol, 288.15 K
  solubility (mole fraction): 0.0351
In isopropanol, 293.15 K
  solubility (mole fraction): 0.0439
In isopropanol, 298.15 K
  solubility (mole fraction): 0.0536
In isopropanol, 303.15 K
  solubility (mole fraction): 0.0656
In isopropanol, 308.15 K
  solubility (mole fraction): 0.08
In isopropanol, 313.15 K
  solubility (mole fraction): 0.0917
In isopropanol, 318.15 K
  solubility (mole fraction): 0.109
In isopropanol, 323.15 K
  solubility (mole fraction): 0.125
In methyl acetate, 283.15 K
  solubility (mole fraction): 0.0663
In methyl acetate, 288.15 K
  solubility (mole fraction): 0.0737
In methyl acetate, 293.15 K
  solubility (mole fraction): 0.0836
In methyl acetate, 298.15 K
  solubility (mole fraction): 0.0968
In methyl acetate, 303.15 K
  solubility (mole fraction): 0.112
In methyl acetate, 308.15 K
  solubility (mole fraction): 0.125
In methyl acetate, 313.15 K
  solubility (mole fraction): 0.141
In methyl acetate, 318.15 K
  solubility (mole fraction): 0.162
In methyl acetate, 323.15 K
  solubility (mole fraction): 0.182
In n-butanol, 283.15 K
  solubility (mole fraction): 0.0231
In n-butanol, 288.15 K
  solubility (mole fraction): 0.0278
In n-butanol, 293.15 K
  solubility (mole fraction): 0.0334
In n-butanol, 298.15 K
  solubility (mole fraction): 0.0403
In n-butanol, 303.15 K
  solubility (mole fraction): 0.0526
In n-butanol, 308.15 K
  solubility (mole fraction): 0.0666
In n-butanol, 313.15 K
  solubility (mole fraction): 0.0784
In n-butanol, 318.15 K
  solubility (mole fraction): 0.0941
In n-butanol, 323.15 K
  solubility (mole fraction): 0.114
In n-pentanol, 283.15 K
  solubility (mole fraction): 0.0181
In n-pentanol, 288.15 K
  solubility (mole fraction): 0.0209
In n-pentanol, 293.15 K
  solubility (mole fraction): 0.0252
In n-pentanol, 298.15 K
  solubility (mole fraction): 0.0322
In n-pentanol, 303.15 K
  solubility (mole fraction): 0.0393
In n-pentanol, 308.15 K
  solubility (mole fraction): 0.0458
In n-pentanol, 313.15 K
  solubility (mole fraction): 0.0536
In n-pentanol, 318.15 K
  solubility (mole fraction): 0.0631
In n-pentanol, 323.15 K
  solubility (mole fraction): 0.0717
In n-propanol, 283.15 K
  solubility (mole fraction): 0.0283
In n-propanol, 288.15 K
  solubility (mole fraction): 0.0389
In n-propanol, 293.15 K
  solubility (mole fraction): 0.0502
In n-propanol, 298.15 K
  solubility (mole fraction): 0.064
In n-propanol, 303.15 K
  solubility (mole fraction): 0.0763
In n-propanol, 308.15 K
  solubility (mole fraction): 0.0881
In n-propanol, 313.15 K
  solubility (mole fraction): 0.104
In n-propanol, 318.15 K
  solubility (mole fraction): 0.123
In n-propanol, 323.15 K
  solubility (mole fraction): 0.141
In water, 283.15 K
  solubility (mole fraction): 4.06e-05
In water, 288.15 K
  solubility (mole fraction): 5.32e-05
In water, 293.15 K
  solubility (mole fraction): 6.49e-05
In water, 298.15 K
  solubility (mole fraction): 7.79e-05
In water, 303.15 K
  solubility (mole fraction): 8.87e-05
In water, 308.15 K
  solubility (mole fraction): 9.81e-05
In water, 313.15 K
  solubility (mole fraction): 0.000109
In water, 318.15 K
  solubility (mole fraction): 0.000118
In water, 323.15 K
  solubility (mole fraction): 0.000125
